PubChem BioAssay (NCI)
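Interpolation was linear, between the two tested concentrations surrounding the appropriate level; five concentrations were tested over 48 hours in 96-well plates. Abbreviation: GI50, concentration required for 50% inhibition of growth. TGI marks complete inhibition of growth.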

Assays:
Test in all cases: growth of human tumour cells (NCI), 48 h
[1] = system: T-47D breast
[2] = system: CCRF-CEM leukemia
[3] = system: PC-3 prostate
[4] = system: HCT-116 colon
[5] = system: SK-OV-3 ovarian
[6] = system: LOX IMVI melanoma
[7] = system: M14 melanoma
[8] = system: MCF7 breast
[9] = system: K-562 leukemia
[10] = system: NCI-H460 lung
[11] = system: OVCAR-4 ovarian
[12] = system: U251 CNS
[13] = system: NCI-H226 lung
[14] = system: BT-549 breast
[15] = system: UACC-62 melanoma
[16] = system: CAKI-1 renal
[17] = system: RXF 393 renal
[18] = system: MOLT-4 leukemia
[19] = system: HCC-2998 colon
[20] = system: SK-MEL-28 melanoma
[21] = system: ACHN renal
[22] = system: MDA-MB-468 breast
[23] = system: SF-539 CNS
[24] = system: IGROV1 ovarian
[25] = system: DU-145 prostate
[26] = system: HOP-92 NSCLC
[27] = system: TK-10 renal
[28] = system: NCI-H522 lung
[29] = system: HT29 colon
[30] = system: SN12C renal
[31] = system: SNB-19 CNS
[32] = system: OVCAR-5 ovarian
[33] = system: KM12 colon
[34] = system: HCT-15 colon
[35] = system: SF-295 CNS
[36] = system: MALME-3M melanoma
[37] = system: SF-268 CNS
[38] = system: A549 NSCLC
[39] = system: SR leukemia
[40] = system: A498 renal
[41] = system: COLO 205 colon
[42] = system: EKVX NSCLC
[43] = system: HOP-62 NSCLC
[44] = system: MDA-MB-231 breast
[45] = system: NCI-H23 lung
[46] = system: SK-MEL-2 melanoma
[47] = system: RPMI-8226 leukemia
[48] = system: SK-MEL-5 melanoma
[49] = system: SNB-75 CNS
[50] = system: HL-60(TB) leukemia
[51] = system: HS 578T breast
[52] = system: UO-31 renal
[53] = system: OVCAR-3 ovarian
[54] = system: 786-0 renal
[55] = system: SW-620 colon
[56] = system: OVCAR-8 ovarian
[57] = system: MDA-MB-435
[58] = system: UACC-257 melanoma

SMILES: O=C(c1ccc(O)cc1)C1[C@H](c2ccccc2Br)[C@@H](c2ccccc2)NC12C(=O)Nc1ccccc12 (stereo partly specified)
- GI50 [1]: 10.5 µM
- TGI [1]: 38.9 µM
- GI50 [2]: 10 µM
- TGI [2]: 22.9 µM
- GI50 [3]: 8.03 µM
- TGI [3]: 21.3 µM
- GI50 [4]: 8.93 µM
- TGI [4]: 18 µM
- GI50 [5]: 11.9 µM
- TGI [5]: 31.3 µM
- GI50 [6]: 8.3 µM
- TGI [6]: 16.2 µM
- GI50 [7]: 8.94 µM
- TGI [7]: 17.7 µM
- GI50 [8]: 10.4 µM
- TGI [8]: 27.6 µM
- GI50 [9]: 12.9 µM
- TGI [9]: 40.2 µM
- GI50 [10]: 9.17 µM
- TGI [10]: 17.8 µM
- GI50 [11]: 8.72 µM
- TGI [11]: 19.1 µM
- GI50 [12]: 9.11 µM
- TGI [12]: 17.1 µM
- GI50 [13]: 6.82 µM
- TGI [13]: 15 µM
- GI50 [14]: 7.23 µM
- TGI [14]: 15 µM
- GI50 [15]: 7.63 µM
- TGI [15]: 15.1 µM
- GI50 [16]: 7 µM
- TGI [16]: 15.1 µM
- GI50 [17]: 5.14 µM
- TGI [17]: 12.8 µM
- GI50 [18]: 7.99 µM
- TGI [18]: 25 µM
- GI50 [19]: 8.48 µM
- TGI [19]: 16.6 µM
- GI50 [20]: 9.1 µM
- TGI [20]: 17.2 µM
- GI50 [21]: 9.17 µM
- TGI [21]: 17.8 µM
- GI50 [22]: 7.08 µM
- TGI [22]: 16 µM
- GI50 [23]: 9.08 µM
- TGI [23]: 17.2 µM
- GI50 [24]: 7.29 µM
- TGI [24]: 15.5 µM
- GI50 [25]: 10 µM
- TGI [25]: 19 µM
- GI50 [26]: 7.83 µM
- TGI [26]: 16.4 µM
- GI50 [27]: 9.29 µM
- TGI [27]: 18.8 µM
- GI50 [28]: 8.25 µM
- TGI [28]: 17.5 µM
- GI50 [29]: 10.2 µM
- TGI [29]: 20.5 µM
- GI50 [30]: 8.7 µM
- TGI [30]: 16.6 µM
- GI50 [31]: 9.03 µM
- TGI [31]: 17.2 µM
- GI50 [32]: 9.47 µM
- TGI [32]: 18.2 µM
- GI50 [33]: 9.8 µM
- TGI [33]: 20.2 µM
- GI50 [34]: 9.43 µM
- TGI [34]: 20 µM
- GI50 [35]: 9.77 µM
- TGI [35]: 21 µM
- GI50 [36]: 8.58 µM
- TGI [36]: 16.4 µM
- GI50 [37]: 7.83 µM
- TGI [37]: 18.8 µM
- GI50 [38]: 8.07 µM
- TGI [38]: 16.9 µM
- GI50 [39]: 9.59 µM
- TGI [39]: 24 µM
- GI50 [40]: 8.6 µM
- TGI [40]: 16.8 µM
- GI50 [41]: 9.19 µM
- TGI [41]: 17.8 µM
- GI50 [42]: 9.34 µM
- TGI [42]: 23.2 µM
- GI50 [43]: 9.37 µM
- TGI [43]: 18.1 µM
- GI50 [44]: 7.94 µM
- TGI [44]: 15.8 µM
- GI50 [45]: 9.23 µM
- TGI [45]: 18.2 µM
- GI50 [46]: 8.33 µM
- TGI [46]: 16.2 µM
- GI50 [47]: 12.8 µM
- TGI [47]: 42.6 µM
- GI50 [48]: 8.92 µM
- TGI [48]: 16.9 µM
- GI50 [49]: 7.87 µM
- TGI [49]: 19.9 µM
- GI50 [50]: 15.1 µM
- TGI [50]: 44.7 µM
- GI50 [51]: 9.49 µM
- TGI [51]: 27.2 µM
- GI50 [52]: 7.61 µM
- TGI [52]: 15 µM
- GI50 [53]: 9.2 µM
- TGI [53]: 18.3 µM
- GI50 [54]: 9.47 µM
- TGI [54]: 18.1 µM
- GI50 [55]: 10.1 µM
- TGI [55]: 19.6 µM
- GI50 [56]: 9.27 µM
- TGI [56]: 17.7 µM
- GI50 [57]: 10.5 µM
- TGI [57]: 20 µM
- GI50 [58]: 8.73 µM
- TGI [58]: 16.9 µM
